Measurements taken from patent US10059697B2, “Compounds and combinations for the treatment of HIV” (priority 2015, dated 2018).
Read-outs that look alike come from different tables or passages of the source.

Test system: HIV-1 expression in latently infected resting CD4 T cells from HIV-1 Infected Subjects on cART
Experiment: microbe, parasite or virus in culture
Format: cell-based
Settings: Human immunodeficiency virus 1, CD4+ T; for fold induction at 0.015 µM: 24 h; for fold induction at 0.3 µM: 0.25 h, read-out: Fold HIV Activation, Geometric Mean, 0.3 μM Carfilzomib, 15 min pulse; for fold induction at 0.04 µM: 4 h, read-out: Fold HIV Activation, Geometric Mean, 40 nM Romidepsin, 4 h pulse
Method: The leukapheresis product was diluted with PBS and layered over Ficoll for isolation of PBMCs. PBMCs were treated with red blood cell lysis buffer and rested overnight (10 million cells/ml) in tissue culture medium (RPMI 1640 supplemented with 10% FBS and Pen/Strep) before the isolation of resting (CD69-CD25-HLA-DR-) CD4 T cells according to the manufacturer's instructions (EasySep Human CD4 T cell Enrichment Kit modified to also deplete CD69+, CD25+, or HLA-DR+ cells). Resting CD4 T cells were cultured in four replicate wells per condition with the indicated compounds or with dimethyl sulfoxide (DMSO, vehicle control) for 6 days. To assess latency reversal that occurs in response to mitogenic activation of T cells, cells were incubated with 50 ng/ml phorbol 12-myristate 13-acetate (PMA) and 500 ng/ml ionomycin. Unless otherwise indicated, continuous exposure was used. Where pulses are indicated, at the end of the pulse, cells were spun three times at 500×g for 5 min, supernatant was decanted and replaced with an equal volume of fresh media. When in combination with another compound that was not pulsed, the compound with continuous exposure was added back at the indicated concentration. The cultures were maintained in the presence of antivirals (elvitegravir and efavirenz at 100 nM each) to prevent viral spread and amplification in order to measure the quantity of virions produced (latency reversal) by the indicated compounds. At the end of the incubation period, cell-free culture supernatants were harvested and HIV-1 RNA levels were quantified by the COBAS® AmpliPrep/COBAS® TaqMan HIV-1 Test, v2.0 (Roche). Romidepsin was used as a control. Romidepsin is a HDAC inhibitor with HIV latency reversal activity (PLoS pathogens (2015), 11(9), e1005142). The combination of a phorbol ester (PMA) and a calcium ionophore (ionomycin) was also used as a mitogenic control that has strong HIV latency reversal activity. As this combination induces global T cell proliferation and activation, systemic administration would likely induce significant toxicity. As such, PMA and ionomycin are useful strictly as a tool to monitor the amount of virus that can be produced in response to a strongly activating stimuli.

Work on `CC(C)C[C@H](NC(=O)[C@H](Cc1ccccc1)NC(=O)c1cnccn1)B(O)O` [Bortezomib, bortezomib, reference compound] yielded a fold induction at 0.015 µM (read-out: Fold HIV Activation, 15 nM bortezomib, 24 hr pulse, individual subjects, Table 8) of 3.47, a fold induction at 0.015 µM (read-out: Fold HIV Activation, 15 nM bortezomib, 24 hr pulse, individual subjects, Table 9) of 3.47 and a fold induction at 0.015 µM (read-out: Fold HIV Activation, Geometric Mean, 15 nM Bortezomib 24 h pulse, geometric mean of subjects, Table 5 (n = 10)) of 1.36. For the same compound, the fold induction at 0.015 µM (read-out: Fold HIV Activation, Geometric Mean, 15 nM bortezomib, 24 hr pulse, geometric mean of subjects, Table 8 (n = 2)) was 3.64, the fold induction at 0.015 µM (read-out: Fold HIV Activation, Geometric Mean, 15 nM bortezomib, 24 hr pulse, geometric mean of subjects, Table 9 (n = 2)) was 3.64 and the fold induction at 0.015 µM (read-out: Fold HIV Activation, Geometric Mean, 15 nM bortezomib, 24 hr pulse, geometric mean of subjects, Table 10 (n = 3)) was 2.23.

With `CC(C)C[C@H](NC(=O)[C@H](CCc1ccccc1)NC(=O)CN1CCOCC1)C(=O)N[C@@H](Cc1ccccc1)C(=O)N[C@@H](CC(C)C)C(=O)[C@@]1(C)CO1` [Carfilzomib, carfilzomib, reference compound] the fold induction at 0.3 µM (geometric mean of subjects, Table 6 (n = 9)) was 1.04, the fold induction at 0.3 µM (geometric mean of subjects, Table 11 (n = 3)) was 0.94 and the fold induction at 0.3 µM (geometric mean of subjects, Table 12 (n = 3)) was 0.94.

For `N#Cc1ncn(CC(=O)Nc2ccc3oc4ccccc4c3c2)n1` [Compound 1], the fold induction at 1 µM (read-out: Fold HIV Activation, Geometric Mean, 1 μM Compound 1, geometric mean of subjects, Table 1 (n = 10)) was 1.03, the fold induction at 3 µM (read-out: Fold HIV Activation, Geometric Mean, 3 μM Compound 1, geometric mean of subjects, Table 1 (n = 10)) was 2.94 and the fold induction at 3 µM (read-out: Fold HIV Activation, Geometric Mean, 3 μM Compound 1, geometric mean of subjects, Table 5 (n = 10)) was 3.12. For the same compound, the fold induction at 3 µM (read-out: Fold HIV Activation, Geometric Mean, 3 μM Compound 1, geometric mean of subjects, Table 6 (n = 9)) was 3.53, the fold induction at 3 µM (read-out: Fold HIV Activation, Geometric Mean, 3 μM Compound 1, geometric mean of subjects, Table 7 (n = 7)) was 5.92 and the fold induction at 6 µM (read-out: Fold HIV Activation, Geometric Mean, 6 μM Compound 1, geometric mean of subjects, Table 1 (n = 10)) was 6.32.

`COc1cc2c(cc1NC(=O)Cn1cnc(C#N)n1)oc1ccccc12` [Compound 2] was tested, and the fold induction at 1 µM (144 h, read-out: Fold HIV Activation, 1 μM Compound 2, 6 days, individual subjects, Table 2) was 1.04, the fold induction at 6 µM (144 h, read-out: Fold HIV Activation, 6 μM Compound 2, 6 days, individual subjects, Table 2) was 4.41 and the fold induction at 3 µM (read-out: Fold HIV Activation, 3 μM Compound 2, individual subjects, Table 8) was 3.42. For the same compound, the fold induction at 1 µM (read-out: Fold HIV Activation, Geometric Mean, 1 μM Compound 2, geometric mean of subjects, Table 2 (n = 8)) was 1.09, the fold induction at 3 µM (read-out: Fold HIV Activation, Geometric Mean, 3 μM Compound 2, geometric mean of subjects, Table 2 (n = 8)) was 2.76 and the fold induction at 3 µM (read-out: Fold HIV Activation, Geometric Mean, 3 μM Compound 2, geometric mean of subjects, Table 8 (n = 2)) was 2.46. For the same compound, the fold induction at 3 µM (read-out: Fold HIV Activation, Geometric Mean, 3 μM Compound 2, geometric mean of subjects, Table 11 (n = 3)) was 2.75 and the fold induction at 6 µM (read-out: Fold HIV Activation, Geometric Mean, 6 μM Compound 2, geometric mean of subjects, Table 2 (n = 8)) was 3.56.

`N#Cc1ncn(CC(=O)Nc2ccc3c(c2)C(=O)c2ccccc2-3)n1` [Compound 3, 2-(3-cyano-1H-1,2,4-triazol-1-yl)-N-(9-oxo-9H-fluoren-2-yl)acetamide] was tested, and the fold induction at 6 µM (144 h, read-out: Fold HIV Activation, 6 μM Compound 3, 6 days, individual subjects, Table 3) was 3.75, the fold induction at 1 µM (read-out: Fold HIV Activation, Geometric Mean, 1 μM Compound 3, geometric mean of subjects, Table 3 (n = 8)) was 1.62 and the fold induction at 3 µM (read-out: Fold HIV Activation, Geometric Mean, 3 μM Compound 3, geometric mean of subjects, Table 3 (n = 8)) was 2.31. For the same compound, the fold induction at 3 µM (read-out: Fold HIV Activation, Geometric Mean, 3 μM Compound 3, geometric mean of subjects, Table 9 (n = 2)) was 1.99, the fold induction at 3 µM (read-out: Fold HIV Activation, Geometric Mean, 3 μM Compound 3, geometric mean of subjects, Table 12 (n = 3)) was 2.59 and the fold induction at 6 µM (read-out: Fold HIV Activation, Geometric Mean, 6 μM Compound 3, geometric mean of subjects, Table 3 (n = 8)) was 2.61.

Work on `C#CCOc1cc2c(cc1NC(=O)Cn1cnc(C#N)n1)oc1ccccc12` [Compound 4, 2-(3-cyano-1H-1,2,4-triazol-1-yl)-N-(2-(prop-2-yn-1-yloxy)dibenzo[b,d]furan-3-yl)acetamide] yielded a fold induction at 1 µM (144 h, read-out: Fold HIV Activation, 1 μM Compound 4, 6 days, individual subjects, Table 4) of 1.09, a fold induction at 6 µM (144 h, read-out: Fold HIV Activation, 6 μM Compound 4, 6 days, individual subjects, Table 4) of 3.03 and a fold induction at 1 µM (read-out: Fold HIV Activation, Geometric Mean, 1 μM Compound 4, geometric mean of subjects, Table 4 (n = 5)) of 1.09. For the same compound, the fold induction at 3 µM (read-out: Fold HIV Activation, Geometric Mean, 3 μM Compound 4, geometric mean of subjects, Table 4 (n = 5)) was 3.54, the fold induction at 3 µM (read-out: Fold HIV Activation, Geometric Mean, 3 μM Compound 4, geometric mean of subjects, Table 10 (n = 3)) was 3.54 and the fold induction at 6 µM (read-out: Fold HIV Activation, Geometric Mean, 6 μM Compound 4, geometric mean of subjects, Table 4 (n = 5)) was 3.97.

In the case of `COC[C@H](NC(=O)c1cnc(C)s1)C(=O)N[C@@H](COC)C(=O)N[C@@H](Cc1ccccc1)C(=O)[C@@]1(C)CO1` [Oprozomib, oprozomib, reference compound], the fold induction at 0.1 µM (1 h, read-out: Fold HIV Activation, Geometric Mean, 100 nM Oprozomib, 1 hr pulse, geometric mean of subjects, Table 7 (n = 7)) is reported as 2.37.

`C/C=C1\NC(=O)[C@H]2CSSCC/C=C/[C@H](CC(=O)N[C@H](C(C)C)C(=O)N2)OC(=O)[C@H](C(C)C)NC1=O` [Romidepsin, reference compound] showed a fold induction at 0.04 µM (geometric mean of subjects, Table 1 (n = 10)) of 2.73, a fold induction at 0.04 µM (geometric mean of subjects, Table 2 (n = 8)) of 3.16 and a fold induction at 0.04 µM (geometric mean of subjects, Table 3 (n = 8)) of 3.16. It also gave a fold induction at 0.04 µM (geometric mean of subjects, Table 4 (n = 5)) of 2.33.
